Results taken from US12502361B2, “Method for treating dengue virus infection” (priority 2021, dated 2025).
Read-outs that look alike come from different tables or passages of the source.

Experiments:
[1] = system: viral dsRNA; experiment: dsRNA immunostaining in DENV2-infected BHK-21 cells; format: cell-based, Dengue virus serotype 2; details: BHK-21 cells pretreated 1 h, DENV2 infection 6 h
Method: DAPI was used to label nuclear DNA. […] Scale bar: 100 μm.
Cells were washed with ice-cold PBS 3 times and fixed with 4% paraformaldehyde (Sigma-Aldrich) at room temperature for 15 minutes. Then, the cells were washed 3 times with ice-cold PBS and permeabilized with permeabilization buffer (PBS containing 1% Triton X-100) at room temperature for 5 minutes. The cells were then washed 3 times with ice-cold PBS and immunoblocked with blocking buffer (PBS containing 1% BSA and 0.01% Triton X-100) at 4° C. for 30 minutes. Next, the cells were washed 3 times with ice-cold PBS and immunohybridized with mouse anti-dsRNA J2 primary antibody at 4° C. overnight. Subsequently, the cells were washed 3 times with ice-cold PBS and stained with Alexa Fluor 488-conjugated goat anti-mouse antibody (Thermo Fisher Scientific) at room temperature for 15 minutes. The cells were washed 3 times with ice-cold PBS and then visualized with fluorescence or confocal microscopy. DAPI (Sigma-Aldrich) was used for nuclear staining.
Following endocytosis, the viral genome is released into the cytoplasm and undergoes genome replication (Solomon et al., J Infect, 42, 2001, 104-115).

[2] = system: endosomal acidification; experiment: Acridine orange staining of endosomal acidification in DENV-infected BHK-21 cells; format: cell-based, hamster; details: BHK-21 cells pretreated 1 h, DENV infection 2 h
Method: Hoechst was used to label nuclear DNA. Scale bar: 100 μm.
Cells were washed with HBSS (Thermo Fisher Scientific) once and then stained with acridine orange agent (Sigma-Aldrich) and Hoechst 33258 (Thermo Fisher Scientific) in an incubator at 37° C. in 5% CO2. After 45 minutes, the cells were washed with HBSS once and rinsed with HBSS. Subsequently, cells were visualized with a fluorescence microscope (EVOS). Hoechst 33258 was used for nuclear staining.
The endosomal acidification step is critical for DENV uncoating to release the viral genome for further replication in the cytoplasm (Solomon et al., J Infect, 42, 2001, 104-115). Therefore, the pH-sensitive dye acridine orange (AO) was used to explore whether propofol affects the early stages of DENV infection accordingly (Kao et al., PLoS Negl Trop Dis, 12, 2018, e0006715).

[3] = system: TNF-α; details: cecal ligation and puncture-administrated rat liver; cited from earlier work
[4] = system: luciferase-expressing DENV replicon; details: BHK-21-SGR replicon cells treated with or without propofol
Method: Baby hamster kidney (BHK)-21 fibroblasts (ATCC, CCL10) were maintained in Dulbecco's modified Eagle's medium (DMEM; Thermo Fisher Scientific) containing 10% heat-inactivated fetal bovine serum (FBS, Biological Industries) and 1% penicillin-streptomycin (Thermo Fisher Scientific) at 37° C. in 5% CO2. BHK-21 cells harboring a luciferase-expressing DENV replicon (BHK-D2-Fluc-SGR-Neo-1) were maintained in DMEM with 10% heat-inactivated FBS, 1% penicillin-streptomycin, and 0.4 mg/ml G418 agent (Cat# A1720, Sigma-Aldrich) at 37° C. in 5% CO2.
BHK-D2-Fluc-SGR-Neo-1 cells (replicons) were seeded in 96-well plates at 3,000 cells/well overnight.
To assess propofol's inhibitory activity on DENV infection, we next used BHK-21-SGR cells, a cellular replicon-based reporter assay, to examine propofol's translational targets.

[5] = system: DENV2; details: BHK-21 cells pretreated 1 h, DENV2 MOI=1, 24 h; doses of 5, 10, 25 and 50 μg/ml
Method: Baby hamster kidney (BHK)-21 fibroblasts (ATCC, CCL10) were maintained in Dulbecco's modified Eagle's medium (DMEM; Thermo Fisher Scientific) containing 10% heat-inactivated fetal bovine serum (FBS, Biological Industries) and 1% penicillin-streptomycin (Thermo Fisher Scientific) at 37° C. in 5% CO2. […] The Aedes albopictus clone mosquito C6/36 cells (ATCC, CRL1660) were maintained in Minimum Essential Medium (MEM; Thermo Fisher Scientific) containing 10% heat-inactivated FBS, 1% penicillin-streptomycin (Thermo Fisher Scientific), 1% sodium pyruvate (Cat#11360-070, Thermo Fisher Scientific), 1% 4-(2-hydroxyethyl) piperazineethanesulfonic acid (HEPES; Cat#15630-080, Thermo Fisher Scientific) and 1% nonessential amino acids (NEAA; Cat#11140-035, Thermo Fisher Scientific) at 28° C. in 5% CO2. Dengue virus serotype 2 (DENV2, strain PL046) was obtained from Center Disease Control in Taiwan and propagated in a C6/36 cell monolayer at a multiplicity of infection (MOI) of 0.01. After incubation (28° C. in 5% CO2) for 5 days, the viral supernatants were collected and filtered with a 0.22 μm filter and then stored at −80° C. until use. Viral titers were determined by plaque assay using BHK-21 cells.
BHK-21 cells were grown in a monolayer in a 12-well plate at 7×10^4 cells/well. […]

[6] = system: phospho-STAT1 and STAT1; details: RAW 264.7 cells, propofol 10 or 25 μg/ml, DENV2 MOI=10, 24 h
Method: (§1) RAW 264.7 cells were pretreated without or with propofol (10 or 25 μg/ml) followed by infection with DENV2 (MOI=10) for 24 h. […] Quantitative data are presented as the mean±SD of the experiments (n=3). *p<0.05; ***p<0.001.
(§2) Cells were collected and extracted with lysis buffer containing a protease inhibitor cocktail (Sigma-Aldrich). The processed proteins were separated by 10% SDS polyacrylamide gel electrophoresis followed by transfer to a polyvinylidene difluoride (PVDF) membrane (Millipore). Then, the PVDF membrane was blocked with 5% nonfat milk in 0.05% Tween-20-containing Tris-buffer-based saline (TBS-T) at room temperature for 1 h. Next, the membrane was washed three times with TBS-T buffer and immunohybridized with the indicated primary antibodies at 4° C. overnight. Then, the membrane was washed with TBS-T buffer three times, followed by incubation with the indicated HRP-conjugated secondary antibodies at room temperature for 1 h. The antibody-protein complexes on the PVDF membrane were detected using an ECL Western blot detection kit (PerkinElmer). The signals of the identified proteins were captured with a film exposure system.
(§3) In this study, RAW 264.7 cells were pretreated with or without propofol (10 or 25 μg/ml) followed by infection with DENV for 24 h.

[7] = system: TNF-α; details: CoCl2-treated hypoxic BV2 microglia; cited from earlier work
[8] = system: DENV NS1; details: BHK-21 cells pretreated 1 h, DENV2 MOI=1, 24 h post-infection
Method: as §2

[9] = system: TNF-α; details: RAW 264.7 cells, propofol 10 or 25 μg/ml, DENV2 MOI=10, 24 h
Method: as §1
According to the manufacturer's instruction, samples were harvested, and the concentration of mouse TNFα was determined using ELISA kit (Cat#88-7324-88, eBioscience).
as §3

[10] = system: BHK-21 cells; details: propofol 1 to 50 μg/ml, 24 h
Method: Quantitative data are presented as the mean±SD of at least three independent experiments (n=3). ***p<0.001. ns, not significant.
According to the manufacturer's instructions, cell cytotoxicity was assessed using Cytotoxicity Detection Kit assays (Roche Diagnostics, Lewes, UK).

Compound | viral dsRNA expression (immunostaining, MFI) [1] | endosomal acidification (acridine orange staining) [2] | gene and cytokine productions of TNF-α [3] | luciferase activity of replicons (viral protein translation) [4] | DENV virion release (viral titer, plaque assay) [5] | protein expressions of phospho-STAT1 and STAT1 (western blot) [6] | gene and cytokine productions of TNF-α [7] | viral NS1 protein expression (western blot) [8] | mouse TNF-α production (ELISA) [9] | cytotoxicity (LDH assay) [10]
CO/C1=C\C(C)=C\[C@@H](C)[C@@H](O)[C@@H](C)C/C(C)=C/C=C/[C@H](OC)[C@@H]([C@@H](C)[C@@H](O)[C@H](C)[C@@]2(O)C[C@@H](O)[C@H](C)[C@@H](C(C)C)O2)OC1=O [Baf A1, bafilomycin A1] | reduced dsRNA expression | endosome acidification was blocked |  |  |  |  |  |  |  | 
CC(C)c1cccc(C(C)C)c1O [propofol, 2,6-diisopropylphenol] | does not affect blocking DENV viral dsRNA replication | does not affect endosomal acidification | reduces both the gene and cytokine productions of TNF-α | no remarkable difference | significantly (p<0.001) reduced DENV virion release | inhibited by propofol treatment | reduces both the gene and cytokine productions of TNF-α | decreased in a dose-dependent manner | reduced the cytokine levels in a dose-dependent manner | did not cause cytotoxicity
